{"source": "patent US20060183773A1", "about": "“Uses of methylphenidate derivatives” (priority 2005, published 2006)", "format_in_all_cases": "cell-based, human", "key": {"[1]": {"system": "c-Jun", "test": "c-Jun in VEGF-treated HUVECs, TransAM AP-1 assay", "conditions": "VEGF 10 ng/ml + 10 μM, control 0.204, VEGF only 0.261", "description": "The flasks were incubated overnight at 37° C., 5% CO2 After this incubation, vascular endothelial growth factor (VEGF) (obtained from Sigma) was added to give a final concentration 10 ng/ml, and the flasks were incubated for an additional 30 minutes.\nThe amount of c-Jun was determined using a TransAM™ AP-1 Family Transcription Factor Assay Kit and a Nuclear Extract Kit from Active Motif North America, Carlsbad, Calif., according to manufacturer's instructions. Briefly, a nuclear extract of the cells was prepared using the Nuclear Extract Kit. Then, the nuclear extract was added to the wells of a 96-well plate in which oligonucleotide containing a TPA-responsive element (TRE) was immobilized. Activator protein-1 (AP-1) dimers contained in the nuclear extract were bound to this oligonucleotide and were detected using an antibody specific for c-Jun. A secondary antibody conjugated to horseradish peroxidase (HRP) was next added to provide a colorimetric readout that was quantified by spectrophotometry (measurement at 450 nm)."}, "[2]": {"system": "IL-8", "test": "IL-8 release by TNFα-stimulated HUVECs, ELISA", "conditions": "10 ng/ml TNFα + 10 μM; 18 hours; TNFα + water 35572", "description": "Passage 4 HUVECs, human source lot number 8710 (obtained from ATCC), were put into the wells of a 24-well tissue culture plate at 5,000 cells/well in EGM-2 medium (obtained from Cambrex) and cultured for 72 hours at 37° C. and 5% CO2. […] After incubation for 1 hour at 37° C. and 5% CO2, TNFα (obtained from Pierce) was added to give a final concentration of 10 ng/ml, and the cells were incubated for an additional 18 hours at 37° C. and 5% CO2. After this incubation, the supernatants were collected, and the amount of IL-8 in the supernatants determined by ELISA as described in Example 4."}, "[3]": {"system": "NFκB", "test": "Activated NFκB in VEGF-treated HUVECs, TransAM assay", "conditions": "VEGF 10 ng/ml + 10 μM, control 0.070, VEGF only 0.111", "description": "Passage 5 HUVECs, human source lot number 8750 (obtained from ATCC), were grown to confluence in 25 cm^2 flasks in EGM-2 medium. The following additives were added to the flasks (total volume of 5 ml/flask) in EGM-2 medium containing 2% FCS, GA1000 (gentamycin), heparin and ascorbic acid (all from Cambrex): 1 μg/ml of the compound of formula II (Cpd II); 5 μg/ml Cpd II; 15 μg/ml of Cpd II; 15 μg/ml methylphenidate (MP); or 10 μM LY 294002. The flasks were incubated overnight at 37° C., 5% CO2 After this incubation, vascular endothelial growth factor (VEGF) (obtained from Sigma) was added to give a final concentration 10 ng/ml, and the flasks were incubated for an additional 30 minutes.\n(§1) Then, the amount of NFκB was determined using a TransAM™ NFκB p65/NFκB p50 Transcription Factor Assay Kit and a Nuclear Extract Kit from Active Motif North America, Carlsbad, Calif., according to the manufacturer's instructions. Briefly, a nuclear extract of the cells was prepared using the Nuclear Extract Kit. Then, the nuclear extract was added to the wells of the 96-well plate of the TransAM™ kit. Oligonucleotide containing an NFκB consensus binding site was immobilized in the wells, and the activated NFκB contained in the nuclear extract was bound to the oligonucleotide. Then, an antibody directed against the NFκB p65 or p50 subunit was added, and the NFκB complex bound to the oligonucleotide was detected. A secondary antibody conjugated to horseradish peroxidase (HRP) was next added to provide a colorimetric readout that was quantified by spectrophotometry (measurement at 450 nm)."}, "[4]": {"system": "NFκB", "test": "Activated NFκB in TNFα- or VEGF-treated HIAECs, TransAM assay", "conditions": "TNFα + LY 294002, control 0.174, TNFα only 0.881", "description": "as §1\nPassage 8 (human iliac artery endothelial cells (HIAECs) (obtained from ATCC; catalog no. CC-2545) were grown to confluence in 25 cm^2 flasks in EGM-2 medium. Eighteen hours prior to the experiment, the medium was replaced with EGM-2 medium containing 0.1% FCS plus heparin, GA1000 (gentamycin) and bovine pituitary extract (all from Cambrex) to place the cells in a resting state. To perform the experiment the medium was aspirated from the flasks, and the following additives were added to the flasks in fresh medium (total volume of 5 ml/flask): 15 μg/ml of the compound of formula II (Cpd II) or 10 μM LY 294002. The flasks were incubated 2 hours at 37° C., 5% CO2 After this incubation, VEGF or TNFα was added to give a final concentration 10 ng/ml, and the flasks were incubated for an additional 30 minutes. Then, the amount of NFκB was determined using a TransAM™ NFκB p65/NFκB p50 Transcription Factor Assay Kit and a Nuclear Extract Kit from Active Motif North America, Carlsbad, Calif., as described in Example 9."}, "[5]": {"system": "TNFα", "test": "TNFα release from LPS-stimulated THP-1 monocytes, ELISA", "conditions": "THP-1, LPS 200 ng/ml, 24 hours; Cpd II 15 μg/ml, Dex 10 μM; LPS alone 138.655", "description": "(§2) THP-1 is a monocyte cell line obtained from American Type Culture Collection (ATCC) (catalog no. TIB-202). […] After 1 hour, lipopolysaccharide (LPS) (obtained from Sigma) was added to the cultures to give a final concentration of 200 ng/ml, and the cells were then incubated for an additional 4 hours or for an additional 24 hours. After the incubation, the cells were centrifuged, and the supernatants were collected. The concentrations of IL-8 and TNFα in the supernatants were determined by ELISA.\nThe TNFα ELISA was performed as described in Example 2."}, "[6]": {"system": "IL-8", "test": "IL-8 release from LPS-stimulated THP-1 monocytes, ELISA", "conditions": "THP-1, LPS 200 ng/ml, Cpd II 15 μg/ml, Dex 10 μM", "description": "as §2\nThe concentrations of IL-8 in the supernatants were determined by ELISA performed as described in Example 4."}, "[7]": {"system": "TCR-positive cells", "test": "Annexin staining of TCR-positive PBL, flow cytometry (cell death)", "conditions": "PHA 5 μg/ml plus 10 μM dexamethasone; printed as decreased from 84%", "description": "After this incubation, PHA was added to give a final concentration of 5 μg/ml, and the cells were incubated for an additional 72 hours at 37° C., 5% CO2. All cultures were performed in triplicate. Cells were then removed by centrifugation at 1000 rpm for 10 minutes.\nThe cells were further analyzed by flow cytometry. Annexin was used to determine populations of dead or dying cells. Anti-CD69 antibody was used to establish the level of cellular activation. Antibody to T-cell receptor αβ (TCR) was also used. Recombinant Annexin 5 (PE and FITC conjugates) and the antibodies were all purchase from Caltag (Burlingham, Calif.) and used following the manufacturer's recommendations."}}}
{"smiles": "O=c1cc(N2CCOCC2)oc2c(-c3ccccc3)cccc12", "note": "[LY 294002, reference compound]", "values": [{"measurement": "Mean OD 450 nm (c-Jun)", "setting": "[1]", "result": "0.340 ± 0.020"}, {"measurement": "Mean IL-8", "setting": "[2]", "result": "9196.1 ± 150.97", "unit": "pg/mL"}, {"measurement": "Mean OD 450 nm (NFκB)", "setting": "[3]", "result": "0.138 ± 0.008"}, {"measurement": "Mean OD 450 nm (NFκB)", "setting": "[4]", "result": "0.810 ± 0.007"}]}
{"smiles": "C[C@@H]1C[C@H]2[C@@H]3CCC4=CC(=O)C=C[C@]4(C)[C@@]3(F)[C@@H](O)C[C@]2(C)[C@@]1(O)C(=O)CO", "note": "[dexamethasone, reference compound]", "values": [{"measurement": "Mean TNFα Concentration", "setting": "[5]", "result": "94.759 ± 8.755", "unit": "pg/mL"}, {"measurement": "% Inhibition (IL-8)", "setting": "[6]; 4 hours", "result": 26, "unit": "%"}, {"measurement": "% Inhibition (IL-8)", "setting": "[6]; 24 hours", "result": 66, "unit": "%"}, {"measurement": "Mean IL-8 Concentration", "setting": "[6]; 24 hours, LPS alone 6653.20", "result": "2300.00 ± 283.41", "unit": "pg/mL"}, {"measurement": "Annexin staining of TCR-positive cells", "setting": "[7]", "result": 48, "unit": "%"}]}
